Source: US20210048439A1, “CAGED AMINO ACIDS FOR CONTROLLED METABOLIC INCORPORATION AND METHODS OF USE” (University of Washington, priority 2018, published 2021)

Key:
[1] = tested on: HeLa cells; assay: Metabolic labeling of Met-depleted HeLa cells; Aha incorporation quantified by protein fluorescence (FAM-BCN, SDS-PAGE); assay type: cell-based
Experimental: Subsequent irradiation with UV light (λ=365 nm, 10 mW cm^−2, 5 min) yielded photoliberated Aha for metabolic incorporation. Two hours after light exposure, cells were lysed and their proteins were treated with a bicyclononyne-modified fluorescein (FAM-BCN, 100 nM, FIG. 2E) to introduce a fluorescent label by SPAAC. Protein fluorescence was then used to quantify the extent of Aha incorporation following protein separation by sodium dodecyl sulfate polyacrylamide gel electrophoresis (SDS-PAGE).
To control the extent of ncAA incorporation into newly synthesized proteins, NPPOC-Aha concentration was varied (0-250 μM) and the intensity of light irradiation (0-10 mW cm^−2) employed during photo-uncaging. […] To determine the potential effects of UV irradiation on metabolic incorporation, labeled protein fluorescence was compared for samples treated with Aha (50 μM)+/−light (10 mW cm^−2, 5 min) (FIG. 3D).
For in vitro work, borosilicate well plates (Mattek, P35G-1.5-14-C) were pretreated with high glucose Dulbecco's Modified Eagle Media (DMEM) supplemented with fetal bovine serum (FBS, 10%) and penicillin-streptomycin (PS, 1%). Plates were incubated at 37° C. for 10 minutes. HeLa cells were cultured on tissue culture polystyrene before seeding on borosilicate glass. After cells reached the desired confluency (50-60% for imaging; 80-90% for lysate analysis), cells were subjected to the following experiments.
Cells were rinsed with warm 1× Dulbecco's phosphate buffered saline (DPBS) and starved of methionine (Met) by the addition of Met-depleted media (1 h, 37° C.). Met-depleted media was prepared by adding L-cystine-2HCl (0.2 mM), L-glutamine (4 mM), and sodium pyruvate (1 mM) to depleted media (Fisher, 21013024). Media was removed and cells were treated with media containing NPPOC-Aha at the desired concentration (0-250 μM). Control media consisted of Aha or Met in the place of NPPOC-Aha. Cells were then irradiated with light (365 nm, 1-10 mW/cm2, 5 min). The cultures were then incubated (2 h, 37° C.) to promote Aha incorporation. The cells were then washed with 1×DPBS (37° C.).
Samples were prepared for sodium dodecyl sulfate polyacrylamide gel electrophoresis (SDS-PAGE) by lysing cells in lysis buffer (10 mM PO4, pH 7.0, 0.5% sodium dodecyl sulfate). Proteins were collected and immediately placed on ice. Free thiols were capped by the addition of iodoacetamide (10 mM, 30 min, room temperature). Azide-containing proteins were labeled by treatment with FAM-BCN (10 μM, 5 hours, room temperature). Excess FAM-BCN was removed by precipitating proteins with 4× sample volume of cold acetone (−20° C.). Lysates were incubated in acetone (1 h, −20° C.) and then subjected to centrifugation (14,000×g, 10 min). Proteins were redissolved in lysis buffer with gentle heating (40° C., 10 min), precipitated once more, and washed with 4× sample volume acetone before drying (20 min). Proteins were then dissolved in SDS-PAGE sample buffer (50 mM Tris-HC, 2% SDS, 10% glycerol, 12.5% β-mercaptoethanol, 0.025% bromophenol blue). Proteins were electrophoretically separated by a 12% polyacrylamide gel by applying a potential of 105 V. After electrophoresis, gels were scanned on a Typhoon FLA9000 fluorescent gel scanner before being stained with coomassie dye.

[2] = NPPOC-Aha photo-uncaging (photolysis) kinetics by HPLC; assay type: physicochemical
Source text: For this system to be effective, the kinetics of NPPOC uncaging should be rapid, such that the liberation of free Aha is not rate limiting compared with the biological processes under study. To determine its photolysis kinetics, NPPOC-Aha (dissolved in H2O:CH3CN, 50:50) was irradiated with collimated UV light (λ=365 nm, 10 mW cm^−2, 0-600 s exposure). Degradation products were quantitatively analyzed by HPLC, with elution fractions compositionally identified by mass spectrometry.
To determine the kinetics of NPPOC-Aha uncaging upon UV light exposure, NPPOC-Aha (3.4 mM dissolved in 50:50 dH2O:CH3CN) was placed in quartz NMR tubes and irradiated with collimated UV light (365 nm, 10 mW/cm^2) emanating from an OmniCure (series 1500; light intensity measured with Cole-Palmer series 9811 radiometer). Time points were collected every 120 s for a total of 600 s. The resulting degradation products were separated by reverse-phase HPLC, eluting with a CH3CN/dH2O gradient ramping from 5% to 100% CH3CN over 55 minutes. Remaining NPPOC-Aha was identified by HRMS (ESI+). Calculated for C14H18N5O6 [M+1H]+, 352.1257; observed 352.1259 (Δ=0.5 ppm). The HPLC peak corresponding to starting material was integrated and monitored over time.

[3] = tested on: HeLa cells; assay: Spatial labeling of phototagged cells in 3D tissue culture (PEG hydrogel, slitted photomask); assay type: cell-based; conditions: cells in oxime-based PEG hydrogels (7 wt %), irradiated through slitted photomask
Source text: Cells were encapsulated in oxime-based poly(ethylene glycol) hydrogels (7 wt %), treated with NPPOC-Aha and selectively irradiated through a slitted photomask. Cells were fixed and fluorescently labeled with FAM-BCN, phalloidin, and Hoechst. […] FAM fluorescence decreased exponentially away from exposed regions in a diffusion-predicted manner. Actin and DNA staining lack substantial patterning (FIG. 4).
HeLa cells were liberated from the tissue culture plate with trypsin, resuspended in FBS-supplemented DMEM, and pelleted by centrifugation. The cells were then gently resuspended in depleted media containing the photocaged Aha. Hydrogel precursors (10 k PEG functionalized with alkoxyamines or benzaldehyde) were combined (1:1 benzaldehyde:alkoxyamine stoichiometry) with cells prior to deposition on a glass-bottomed well plate (7 wt %, 10 mM aniline, 5 million cells/mL). After the gel had formed (30 min), it was inundated with depleted media containing […] (100 μM 30 min). Excess media was removed by aspiration and a subsection of the gel was irradiated with light (365 nm, 10 mW/cm2, 5 min) through a slitted photomask. Gels were washed with warm 1×DPBS (37° C., 15 min) before fixing with formaldehyde (4%, 1 hr, room temperature). Fixed cells were rinsed with 1×DPBS, and permeabilized with Triton™ X-100 (Sigma, 0.5%, 1 hr, room temperature). Cells were then washed (3×, 1 hr each) with 1×DPBS. […]

[4] = tested on: HeLa cells; assay: NPPOC-Aha in vitro stability in media with HeLa cells; assay type: in vitro ADME
Experimental: To assess its in vitro stability, NPPOC-Aha (100 μM) was incubated in media with HeLa cells for 0-4 hr prior to light exposure (10 mW cm^−2, 5 min) and subsequent metabolic labeling (2 hr). […] Such stability is useful in sampling biological systems, as it decouples media swaps from proteome labeling, allowing researchers to standardize their experimental conditions.
The stability of NPPOC-Aha was conducted using the above protocols for cell culture and SDS-PAGE with minor modifications. Instead of irradiating samples immediately following addition of NPPOC-Aha media, NPPOC-Aha was incubated in the presence of cells for the desired time (0-4 hours) prior to light exposure. Met (3.33 μM) was added to all media, yielding a 30:1 ratio of NPPOC-Aha:Met5.

[5] = tested on: HeLa cells; assay: Fluorescent labeling of phototagged fixed cells (confocal imaging); assay type: cell-based; conditions: NPPOC-Aha 100 μM in the absence of light
Experimental: Building on the capability to fluorescently tag cellular lysates as well as isolate species of interest via laBONCAT, the technique's unique ability to label newly synthesized proteins in vitro with spatial control was investigated; this method could be applied to the isolation of proteins […] at user-specified times and locations from heterogeneous features in tissue culture, especially tissue slices. HeLa cells were treated with NPPOC-Aha (100 μM) and exposed to light (λ=365 nm, 10 mW cm^−2, 5 min). Two hours after exposure, cells were fixed, permeabilized, and treated with FAM-BCN (100 nM) to introduce a fluorescent label via SPAAC.
To fluorescently label Aha-tagged proteins for visualization, cells were rinsed with warm 1×DPBS (37° C.) before fixing with formaldehyde (4%, 10 min, room temperature). Fixed cells were rinsed with 1×DPBS, and permeabilized with Triton™ X-100 (Sigma, 0.5%, 2 min, room temperature). Cells were then washed (3×, 5 min each) with 1×DPBS. Azides were labeled by strain-promoted azide-alkyne cycloaddition (SPAAC) with FAM-BCN (100 nM, 30 min, room temperature) in the dark. Next, labeled cells were washed (3×, 5 min each) with 1×DPBS prior to imaging on a Leica SP8X laser scanning confocal microscope.

[6] = control media with Aha or Met in place of NPPOC-Aha

SMILES: [N-]=[N+]=NCC[C@H](N)C(=O)O [Aha, L-Azidohomoalanine, reference compound]
- effect of UV irradiation on protein labeling ([1]; Aha 50 μM +/− light (10 mW cm^−2, 5 min)): no statistical difference
- protein fluorescence (extent of Aha incorporation) [1, 6]: significant fluorescent enhancement
- free Aha concentration above which normalized incorporation plateaus ([1]; incorporation normalized for expected liberated Aha predicted by the photokinetics): about 50 μM

SMILES: CSCC[C@H](N)C(=O)O [Met, L-methionine, reference compound]
- protein fluorescence (extent of Aha incorporation) [1, 6]: lack of fluorescence

SMILES: CC(COC(=O)N[C@@H](CCN=[N+]=[N-])C(=O)O)c1ccccc1[N+](=O)[O-] (stereo partly drawn) [NPPOC-Aha, (2S)-4-azido-2-({[2-(2-nitrophenyl)propoxy]carbonyl}amino)butanoic Acid]
- first-order decay constant for NPPOC photolysis ([2]; H2O:CH3CN 50:50, collimated UV λ=365 nm, 10 mW cm^−2, 0-600 s): 0.0075 ± 0.0002 s⁻¹
- NPPOC cleaved ([2]; after 5 minutes of irradiation, 365 nm, 10 mW cm-2): 90%
- cellular FAM signal pattern (patterned Aha incorporation) [3]: localized near exposed regions
- Aha incorporation as function of NPPOC-Aha concentration ([1]; NPPOC-Aha 0-250 μM, given exposure condition): increased with NPPOC-Aha concentration
- protein fluorescence (extent of Aha incorporation) ([1]; NPPOC-Aha 250 μM, UV-treated (365 nm, 10 mW cm^−2, 5 min), lysis 2 h after exposure): significant fluorescent enhancement
- protein fluorescence (extent of Aha incorporation) ([1]; NPPOC-Aha 250 μM, non-irradiated): lack of fluorescence
- dependence of protein labeling on mode of irradiation ([1]; NPPOC-Aha irradiated separately or during incubation with cells): does not depend on whether NPPOC-Aha is irradiated separately or during incubation with cells
- incorporation of irradiated NPPOC-Aha compared with Aha ([1]; each at 100 μM, NPPOC-Aha + light): slightly less incorporation than Aha alone
- metabolic labeling as function of light intensity ([1]; low NPPOC-Aha concentrations, 0-10 mW cm^−2): increased with light intensity
- Aha incorporation after pre-incubation, non-irradiated samples ([4]; 100 μM, 0-4 hr in media with HeLa cells, no light): did not show increased incorporation over time
- Aha incorporation after pre-incubation, irradiated samples ([4]; 100 μM, 0-4 hr in media with HeLa cells, then light): extent decreased over time
- working time (stability in media with cells) ([4]; NPPOC-Aha 100 μM incubated with HeLa cells 0-4 hr before light (10 mW cm^−2, 5 min), labeling 2 hr): > 4 h
- extent of fluorescent labeling of fixed cells [5]: low-level labeling similar to Met
